Assays:
TNF-α = experiment: LPS-induced inflammatory factor TNF-α in mouse blood; format: in vivo; settings: mouse blood about 12 h after LPS, intra-abdominal
Description: (§1) Based on the experimental result in the cell level, the effect of controlling vascular inflammation of the ginseng berry extract was tested in an animal model. Mice were grouped into a non-treated group, an LPS-induced group, a group treated with the ginseng berry extract of Example 1 (50 μg/mL and 100 μg/mL), a group treated with the ginseng berry saponin concentrate of Example 2 (100 μg/mL), a group treated with the ginseng root extract of Comparative Example 1 (100 μg/mL) and groups treated with ginsenosides Rg1, Rg2, Rh1 or Re (10 μg/mL and 20 μg/mL), with 5 mice per each group.
(§2) 100 mg of each test substance per kg body weight of mouse, diluted in saline solution (0.9% NaCl), was intra-abdominally injected three times from day 1 through day 3. 2 hours after the injection on day 3, LPS diluted in saline solution (1 μg/mL) was injected intra-abdominally at a concentration of about 4 mg per kg body weight of mouse to induce inflammation by inflammatory factors (PGE2, TNF-α and IL1-β). After approximately 12 hours, the abdomen of the mouse was cut open, and blood was taken from the artery of the heart and stored at […]. The blood was kept at room temperature for 30 minutes and, after centrifuge at 4° C. and 3,000 rpm for 10 minutes, the supernatant was kept at −20° C. Then, the inflammatory factors PGE2, TNF-α and IL1-β were identified by western blotting. Measurement was made twice and the mean value was calculated. The result is shown in Table 4 and FIG. 9 (PGE2 (ng/mL)), Table 5 and FIG. 10 (TNF-α (ng/mL)), and Table 6 and FIG. 11 (IL1-β (pg/mL)).

[1] = system: melanocytes (MeI-Ab cells); experiment: Inhibition of melanin generation in mouse melanocytes; format: cell-based, C57BL/6 mouse; settings: added for 3 consecutive days; sample 10 μg/mL
Description: Inhibition of melanin generation in mouse melanocytes was evaluated in order to confirm the effect of the ginseng berry extract of Example 1 of inhibiting melanin generation.
First, melanocytes (MeI-Ab cells) derived from C57BL/6 mouse [Dooley, T. P. et al, Skin Pharmacol., 7, pp. 188-200] were cultured in Dulbecco's modified Eagle's medium (DMEM) containing 10% FBS, 100 nM 2-O-tetradecanoylphorbol-13-acetate and 1 nM cholera toxin under the condition of 37° C., 5% CO2. The cultured MeI-Ab cells were separated using 0.25% trypsin-EDTA, and cultured on a 24-well plate to a concentration of 10^5 cells/well. Starting from day 2, the ginseng berry extract of Example 1 (1 μg/mL, 10 μg/mL and 100 μg/mL), the ginseng berry saponin concentrate of Example 2 (10 μg/mL), the ginseng root extract of Comparative Example 1 (10 μg/mL) or ginsenosides Rg1, Rg2, Rh1 or Re (10 μg/mL) was added for 3 consecutive days. Hydroquinone (10 μg/mL) was used as a positive control substance. Then, after removing the medium and washing with PBS, the cells were dissolved with 1 N sodium hydroxide. Absorbance was measured at 400 nm, and melanin generation inhibition ratio was calculated by Equation 3.

IL1-β = experiment: LPS-induced inflammatory factor IL1-β in mouse blood; format: in vivo; settings: mouse blood about 12 h after LPS, intra-abdominal
Description: as §1, §2

Human epidermal cells = experiment: Hyaluronic acid production in human epidermal cells; format: cell-based; settings: 48 hours, relative to control; sample 10 μg/mL
Description: Human epidermal cells were cultured and the medium was replaced by one containing the ginseng berry extract of Example 1 (1 μg/mL, 10 μg/mL and 100 μg/mL), the ginseng berry saponin concentrate of Example 2 (10 μg/mL), the ginseng root extract of Comparative Example 1 (10 μg/mL) or ginsenosides Rg1, Rg2, Rh1 or Re (10 μg/mL) or a general medium (control). The cells were then cultured for 48 hours under the same conditions. Then, the quantity of hyaluronic acid in the groups was compared using a hyaluronic acid measurement kit. The result is given as relative value with respect to the control group in Table 16 and FIG. 20.

type I procollagen = experiment: Type I procollagen assay in human fibroblasts (ELISA); format: cell-based; settings: 3rd day, sample 10 μg/mL
Description: Human fibroblasts were cultured on a 12-well plate incubator to a concentration of 10^5 cells/well. Then, the medium was replaced by one including the ginseng berry extract of Example 1 (1 μg/mL and 10 μg/mL), the ginseng berry saponin concentrate of Example 2 (10 μg/mL), the ginseng root extract of Comparative Example 1 (10 μg/mL) or ginsenosides Rg1, Rg2, Rh1 or Re (10 μg/mL). 10 ng/mL transforming growth factor β (TGF-β) was used as a positive control substance.
On the 3rd day of culturing, the cells were harvested and the quantity of produced type I procollagen was analyzed using ELISA. The result was calculated as a relative value with respect to the negative control group, which was not treated with a test substance.

Structure (SMILES) | TNF-α, Mean ± standard deviation (TNF-α; group (10 μg/mL)) | TNF-α, Result 1 (TNF-α; group (10 μg/mL)) | TNF-α, Result 2 (TNF-α; group (10 μg/mL)) | TNF-α, Mean ± standard deviation (TNF-α; group (20 μg/mL)) | TNF-α, Result 1 (TNF-α; group (20 μg/mL)) | TNF-α, Result 2 (TNF-α; group (20 μg/mL)) | Melanin generation inhibition ratio (%) [1] | IL1-β, Mean ± standard deviation (IL1-β; group (10 μg/mL)) | IL1-β, Result 1 (IL1-β; group (10 μg/mL)) | IL1-β, Result 2 (IL1-β; group (10 μg/mL)) | IL1-β, Mean ± standard deviation (IL1-β; group (20 μg/mL)) | IL1-β, Result 1 (IL1-β; group (20 μg/mL)) | IL1-β, Result 2 (IL1-β; group (20 μg/mL)) | Hyaluronic acid production (%) (Human epidermal cells) | Procollagen activity relative to negative control (%) (type I procollagen)
CC(C)=CCC[C@](C)(O[C@@H]1O[C@H](CO)[C@@H](O)[C@H](O)[C@H]1O)[C@H]1CC[C@]2(C)[C@@H]1[C@H](O)C[C@@H]1[C@@]3(C)CC[C@H](O)C(C)(C)[C@@H]3[C@@H](O[C@@H]3O[C@H](CO)[C@@H](O)[C@H](O)[C@H]3O)C[C@]12C [Rg1] | 38.60 ± 2.69 ng/mL | 36.7 ng/mL | 40.5 ng/mL | 34.55 ± 2.90 ng/mL | 36.6 ng/mL | 32.5 ng/mL | 1% | 133.50 ± 7.78 pg/mL | 128 pg/mL | 139 pg/mL | 141.50 ± 9.19 pg/mL | 135 pg/mL | 148 pg/mL | 100% | 105%
CC(C)=CCC[C@](C)(O)[C@H]1CC[C@]2(C)[C@@H]1[C@H](O)C[C@@H]1[C@@]3(C)CC[C@H](O)C(C)(C)[C@@H]3[C@@H](O[C@@H]3O[C@H](CO)[C@@H](O)[C@H](O)[C@H]3O[C@@H]3O[C@@H](C)[C@H](O)[C@@H](O)[C@H]3O)C[C@]12C [Rg2] | 35.05 ± 2.47 ng/mL | 33.3 ng/mL | 36.8 ng/mL | 31.60 ± 1.98 ng/mL | 30.2 ng/mL | 33 ng/mL | 0% | 131.50 ± 3.54 pg/mL | 129 pg/mL | 134 pg/mL | 125.00 ± 8.49 pg/mL | 131 pg/mL | 119 pg/mL | 105% | 110%
CC(C)=CCC[C@](C)(O)[C@H]1CC[C@]2(C)[C@@H]1[C@H](O)C[C@@H]1[C@@]3(C)CC[C@H](O)C(C)(C)[C@@H]3[C@@H](O[C@@H]3O[C@H](CO)[C@@H](O)[C@H](O)[C@H]3O)C[C@]12C [Rh1] | 32.55 ± 5.16 ng/mL | 28.9 ng/mL | 36.2 ng/mL | 32.15 ± 3.32 ng/mL | 29.8 ng/mL | 34.5 ng/mL | 2% | 121.50 ± 7.78 pg/mL | 116 pg/mL | 127 pg/mL | 112.75 ± 6.72 pg/mL | 108 pg/mL | 117.5 pg/mL | 100% | 105%
